According to publication PMC7316778 (Nature Communications, 2020):
Several values for one entry are separate records, joined by “and”; a condition that tells them apart may be missing. Identical values can stand only once. Like-named read-outs stand apart in the source and are kept apart here.

Assays:
FES^S700C HL-60 cells = assay: Morphological inspection after PMA-induced differentiation; assay type: cell-based, human
Protocol: One day prior to induction of differentiation, cells were diluted to 0.4 × 10^6 cells/mL. […] Neutrophil differentiation was induced by addition of all-trans-retinoic acid (1 µM) and dimethylsulfoxide (1.25%) for 72–96 h. For morphological inspection, images were taken on an EVOS FL Auto 2 Imaging System (Thermo Fisher) at ×20 magnification.
Supplementary Figure 10. Analysis of putative sgRNA off-target site. Analysis of the only predicted coding off-target of the sgRNA target sequence employed for FESS700C mutagenesis, located in the TTC16 gene. Genomic region surrounding putative off-target site was amplified by PCR, followed by Sanger sequencing analysis. No off-target gene editing events were observed.
Supplementary Figure 11. Morphological inspection of WT and FESS700C HL-60 cells after PMA-induced differentiation towards macrophages. Cells were treated with vehicle or indicated concentrations of WEL028 during PMA-induced differentiation toward macrophages. Wild-type and […]
are representative for multiple acquired images at 20x magnification from replicates (n = 3).
(also on this page, place not known: off -target off -target FES S700C PMA -induced W ild-type PAM Predicted TTC16 (NM_144965) HL-60 WT HL-60 125 μm Non-differentiated PMA (16 nM, 48 h) HL-60 WTHL-60 FESS700C Vehicle Vehicle WEL028 (100 nM) WEL028 (1 µM))

CDC42 BPG (MRCKG) = CDC42 BPG (MRCKG) (Homo sapiens, UniProt Q6DT37); assay: SelectScreen kinase assay
Protocol: (§1) Selectivity profiling assays were performed by the Invitrogen SelectScreen™ Services. […] The concentration of ATP was selected to be equal to the KM, unless indicated otherwise.

CDK17/cyclin Y = CDK17/cyclin Y (Homo sapiens, UniProt Q00537); assay: SelectScreen kinase assay
Protocol: as §1

EPHA7 = EPHA7 (Homo sapiens, UniProt Q15375); assay: SelectScreen kinase assay; settings: 1 h, 1 μM WEL028, 1 h preincubation
Protocol: as §1

ERBB2 (HER2) = ERBB2 (HER2) (Homo sapiens, UniProt P04626); assay: SelectScreen kinase assay; settings: for Inhibition at 1 µM (%): ERBB2 (HER2), ZLYTE, ATP Km app
Sequence of ERBB2 (HER2) (P04626 23-1255): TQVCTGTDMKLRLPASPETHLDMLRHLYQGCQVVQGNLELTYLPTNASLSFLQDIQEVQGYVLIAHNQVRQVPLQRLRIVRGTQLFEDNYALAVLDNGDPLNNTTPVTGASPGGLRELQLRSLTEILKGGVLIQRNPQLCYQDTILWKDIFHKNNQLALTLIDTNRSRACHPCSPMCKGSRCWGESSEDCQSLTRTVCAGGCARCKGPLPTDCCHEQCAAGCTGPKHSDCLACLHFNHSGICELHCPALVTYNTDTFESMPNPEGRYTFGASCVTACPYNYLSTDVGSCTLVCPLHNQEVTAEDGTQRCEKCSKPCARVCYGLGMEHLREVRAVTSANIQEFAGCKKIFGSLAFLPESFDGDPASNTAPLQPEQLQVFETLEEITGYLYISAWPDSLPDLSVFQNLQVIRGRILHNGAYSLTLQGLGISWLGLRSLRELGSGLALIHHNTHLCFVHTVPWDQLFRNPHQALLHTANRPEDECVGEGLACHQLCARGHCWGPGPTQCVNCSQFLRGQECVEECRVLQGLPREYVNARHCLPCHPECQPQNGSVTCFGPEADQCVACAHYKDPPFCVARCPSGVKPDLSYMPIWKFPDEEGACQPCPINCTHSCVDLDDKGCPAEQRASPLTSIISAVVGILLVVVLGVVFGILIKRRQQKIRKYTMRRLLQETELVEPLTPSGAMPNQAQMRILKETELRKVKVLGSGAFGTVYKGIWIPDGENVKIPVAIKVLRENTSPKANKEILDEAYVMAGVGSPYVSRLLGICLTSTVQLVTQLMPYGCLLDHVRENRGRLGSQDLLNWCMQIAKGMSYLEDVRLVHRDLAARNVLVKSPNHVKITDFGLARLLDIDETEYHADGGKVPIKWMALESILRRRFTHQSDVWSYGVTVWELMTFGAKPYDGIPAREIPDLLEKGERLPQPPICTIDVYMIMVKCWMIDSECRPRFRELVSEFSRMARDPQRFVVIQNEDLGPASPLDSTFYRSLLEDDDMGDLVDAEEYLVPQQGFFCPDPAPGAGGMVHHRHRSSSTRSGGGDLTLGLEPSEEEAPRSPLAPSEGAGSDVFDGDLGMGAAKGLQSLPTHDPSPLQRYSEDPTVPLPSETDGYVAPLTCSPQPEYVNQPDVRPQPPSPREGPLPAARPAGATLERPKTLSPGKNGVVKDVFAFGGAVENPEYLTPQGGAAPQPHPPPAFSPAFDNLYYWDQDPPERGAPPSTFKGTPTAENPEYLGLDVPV
Protocol: as §1

ERN1 = ERN1 (Homo sapiens, UniProt O75460); assay: SelectScreen kinase assay; settings: for Inhibition at 1 µM (%): ERN1, LanthaScreen Binding
Protocol: as §1

MET (cMet) = MET (cMet) (Homo sapiens, UniProt P08581); assay: SelectScreen kinase assay
Sequence of MET (cMet) (P08581 25-1390): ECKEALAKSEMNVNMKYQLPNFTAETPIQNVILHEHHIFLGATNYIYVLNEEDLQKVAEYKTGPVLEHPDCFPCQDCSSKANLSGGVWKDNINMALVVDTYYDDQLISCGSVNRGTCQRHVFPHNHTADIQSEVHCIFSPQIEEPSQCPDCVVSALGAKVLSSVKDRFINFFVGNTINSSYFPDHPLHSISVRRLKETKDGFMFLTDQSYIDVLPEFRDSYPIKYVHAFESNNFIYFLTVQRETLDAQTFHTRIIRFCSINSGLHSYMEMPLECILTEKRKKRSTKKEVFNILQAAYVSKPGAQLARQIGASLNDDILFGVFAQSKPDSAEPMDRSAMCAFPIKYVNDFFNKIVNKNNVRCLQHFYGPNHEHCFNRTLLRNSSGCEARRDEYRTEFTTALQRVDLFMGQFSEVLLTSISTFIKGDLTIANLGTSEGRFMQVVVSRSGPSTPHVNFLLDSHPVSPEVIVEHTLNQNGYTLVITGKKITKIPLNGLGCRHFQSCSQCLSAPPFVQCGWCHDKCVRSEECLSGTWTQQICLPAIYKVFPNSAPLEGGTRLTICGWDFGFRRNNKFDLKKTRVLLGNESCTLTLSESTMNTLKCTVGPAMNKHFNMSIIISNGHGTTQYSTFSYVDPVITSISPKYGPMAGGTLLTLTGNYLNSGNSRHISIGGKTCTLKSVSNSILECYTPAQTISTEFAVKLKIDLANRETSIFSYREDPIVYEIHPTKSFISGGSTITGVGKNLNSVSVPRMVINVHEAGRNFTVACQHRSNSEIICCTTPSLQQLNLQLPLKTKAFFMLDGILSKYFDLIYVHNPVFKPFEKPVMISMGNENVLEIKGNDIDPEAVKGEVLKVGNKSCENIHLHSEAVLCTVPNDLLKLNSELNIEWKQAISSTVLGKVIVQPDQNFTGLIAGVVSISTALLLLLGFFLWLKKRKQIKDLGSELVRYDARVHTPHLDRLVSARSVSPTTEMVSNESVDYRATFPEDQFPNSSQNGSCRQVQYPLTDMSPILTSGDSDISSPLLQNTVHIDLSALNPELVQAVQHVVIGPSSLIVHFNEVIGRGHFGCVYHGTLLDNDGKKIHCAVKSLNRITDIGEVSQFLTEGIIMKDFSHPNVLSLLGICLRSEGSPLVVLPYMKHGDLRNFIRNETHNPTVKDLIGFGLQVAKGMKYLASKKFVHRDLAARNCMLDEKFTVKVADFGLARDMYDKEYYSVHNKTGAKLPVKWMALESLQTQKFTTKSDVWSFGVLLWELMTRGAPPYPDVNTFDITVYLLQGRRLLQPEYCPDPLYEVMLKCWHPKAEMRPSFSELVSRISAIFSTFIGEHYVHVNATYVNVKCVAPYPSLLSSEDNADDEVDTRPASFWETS
Protocol: as §1

PIK3C2G (PI3K-C2 gamma) = PIK3C2G (PI3K-C2 gamma) (Homo sapiens, UniProt O75747); assay: SelectScreen kinase assay
Protocol: as §1

SPHK2 = SPHK2 (Homo sapiens, UniProt Q9NRA0); assay: SelectScreen kinase assay
Sequence of SPHK2 (Q9NRA0 whole entry): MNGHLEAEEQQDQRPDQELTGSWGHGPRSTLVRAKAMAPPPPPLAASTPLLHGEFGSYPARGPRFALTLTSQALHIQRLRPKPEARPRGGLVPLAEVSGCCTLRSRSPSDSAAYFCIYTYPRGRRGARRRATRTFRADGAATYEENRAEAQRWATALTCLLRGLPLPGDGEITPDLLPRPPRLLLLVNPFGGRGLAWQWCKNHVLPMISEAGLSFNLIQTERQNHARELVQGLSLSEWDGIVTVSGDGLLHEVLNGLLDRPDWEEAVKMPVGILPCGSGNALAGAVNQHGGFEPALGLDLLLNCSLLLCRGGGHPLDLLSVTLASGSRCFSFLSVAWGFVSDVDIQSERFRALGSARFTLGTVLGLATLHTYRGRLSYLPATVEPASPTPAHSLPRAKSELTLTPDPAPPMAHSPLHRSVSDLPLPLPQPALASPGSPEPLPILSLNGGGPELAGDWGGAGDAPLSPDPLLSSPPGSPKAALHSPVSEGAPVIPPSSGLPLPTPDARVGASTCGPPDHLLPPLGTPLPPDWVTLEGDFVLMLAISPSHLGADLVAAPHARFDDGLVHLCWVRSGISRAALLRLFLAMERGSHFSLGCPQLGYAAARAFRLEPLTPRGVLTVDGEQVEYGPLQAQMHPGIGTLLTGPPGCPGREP
Protocol: as §1

TEC = target: T1, TEC (Homo sapiens, UniProt P42680); assay: SelectScreen kinase assay; settings: for Inhibition at 1 µM (%): LanthaScreen Binding
T1 sequence (P42680 1-631): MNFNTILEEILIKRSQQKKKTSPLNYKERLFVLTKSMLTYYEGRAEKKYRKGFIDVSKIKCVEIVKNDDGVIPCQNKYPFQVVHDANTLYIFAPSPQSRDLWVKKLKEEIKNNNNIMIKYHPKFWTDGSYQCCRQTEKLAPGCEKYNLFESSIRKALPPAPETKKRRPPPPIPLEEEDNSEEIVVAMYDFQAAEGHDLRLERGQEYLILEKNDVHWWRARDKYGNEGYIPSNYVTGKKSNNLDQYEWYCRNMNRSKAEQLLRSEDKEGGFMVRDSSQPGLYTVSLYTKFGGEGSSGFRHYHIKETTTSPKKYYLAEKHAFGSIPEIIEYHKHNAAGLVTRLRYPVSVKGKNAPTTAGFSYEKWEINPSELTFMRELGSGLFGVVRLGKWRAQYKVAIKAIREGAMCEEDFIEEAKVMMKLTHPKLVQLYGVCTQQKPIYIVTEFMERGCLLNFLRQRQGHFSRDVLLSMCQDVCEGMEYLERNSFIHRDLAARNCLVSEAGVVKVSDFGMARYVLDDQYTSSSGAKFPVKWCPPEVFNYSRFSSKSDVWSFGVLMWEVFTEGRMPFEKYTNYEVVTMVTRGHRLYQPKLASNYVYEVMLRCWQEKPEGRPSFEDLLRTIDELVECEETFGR
Protocol: as §1

TNK1 = target: T2, TNK1 (Homo sapiens, UniProt Q13470); assay: SelectScreen kinase assay
T2 sequence (Q13470 1-666): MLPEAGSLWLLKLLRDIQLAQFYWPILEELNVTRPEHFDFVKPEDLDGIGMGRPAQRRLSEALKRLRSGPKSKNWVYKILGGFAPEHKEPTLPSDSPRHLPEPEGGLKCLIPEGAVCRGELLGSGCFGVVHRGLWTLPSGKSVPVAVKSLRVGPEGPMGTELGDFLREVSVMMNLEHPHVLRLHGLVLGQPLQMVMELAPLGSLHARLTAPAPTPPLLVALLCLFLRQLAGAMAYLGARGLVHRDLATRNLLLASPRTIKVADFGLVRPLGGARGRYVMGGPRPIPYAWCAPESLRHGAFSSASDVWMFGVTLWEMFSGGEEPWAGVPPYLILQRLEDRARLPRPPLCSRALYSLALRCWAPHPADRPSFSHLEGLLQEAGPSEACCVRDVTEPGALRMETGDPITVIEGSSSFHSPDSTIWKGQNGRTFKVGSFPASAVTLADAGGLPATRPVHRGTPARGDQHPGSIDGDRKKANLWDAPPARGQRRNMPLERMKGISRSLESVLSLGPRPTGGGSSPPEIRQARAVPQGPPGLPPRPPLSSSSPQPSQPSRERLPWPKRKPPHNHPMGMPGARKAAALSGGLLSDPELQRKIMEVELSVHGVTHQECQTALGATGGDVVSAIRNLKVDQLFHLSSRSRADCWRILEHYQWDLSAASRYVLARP
Protocol: as §1

TYK2 = TYK2 (Homo sapiens, UniProt P29597); assay: SelectScreen kinase assay
Sequence of TYK2 (P29597 whole entry): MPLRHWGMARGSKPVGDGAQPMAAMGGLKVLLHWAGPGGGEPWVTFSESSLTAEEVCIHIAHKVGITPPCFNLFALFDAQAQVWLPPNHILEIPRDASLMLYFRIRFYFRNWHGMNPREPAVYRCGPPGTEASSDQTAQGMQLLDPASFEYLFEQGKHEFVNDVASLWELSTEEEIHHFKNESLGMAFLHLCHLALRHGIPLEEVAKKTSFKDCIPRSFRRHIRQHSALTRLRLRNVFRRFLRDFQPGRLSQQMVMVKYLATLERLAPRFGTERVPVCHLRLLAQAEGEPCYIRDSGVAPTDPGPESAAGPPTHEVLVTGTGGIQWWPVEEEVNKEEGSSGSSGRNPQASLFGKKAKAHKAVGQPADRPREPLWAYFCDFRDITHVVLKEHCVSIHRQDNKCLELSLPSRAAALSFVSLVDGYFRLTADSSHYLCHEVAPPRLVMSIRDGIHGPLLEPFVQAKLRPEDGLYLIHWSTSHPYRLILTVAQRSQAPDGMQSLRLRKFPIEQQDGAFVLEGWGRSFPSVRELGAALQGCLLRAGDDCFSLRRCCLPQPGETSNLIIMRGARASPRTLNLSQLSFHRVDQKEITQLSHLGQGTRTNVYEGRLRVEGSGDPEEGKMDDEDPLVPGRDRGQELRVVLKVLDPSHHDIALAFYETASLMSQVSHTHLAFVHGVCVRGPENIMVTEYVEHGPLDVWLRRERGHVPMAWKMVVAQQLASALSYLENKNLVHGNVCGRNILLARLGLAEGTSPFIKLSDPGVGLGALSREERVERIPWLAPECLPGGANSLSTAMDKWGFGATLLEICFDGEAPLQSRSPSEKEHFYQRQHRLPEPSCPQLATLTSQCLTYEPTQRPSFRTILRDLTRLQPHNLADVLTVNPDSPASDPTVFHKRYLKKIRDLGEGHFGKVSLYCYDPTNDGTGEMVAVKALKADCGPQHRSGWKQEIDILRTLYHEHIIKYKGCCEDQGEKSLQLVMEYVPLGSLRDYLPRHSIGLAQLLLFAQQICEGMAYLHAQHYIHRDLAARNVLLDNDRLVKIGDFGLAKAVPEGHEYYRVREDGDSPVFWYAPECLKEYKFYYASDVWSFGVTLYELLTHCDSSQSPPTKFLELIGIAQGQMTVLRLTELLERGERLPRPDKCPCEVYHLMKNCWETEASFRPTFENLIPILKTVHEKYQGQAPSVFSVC
Protocol: as §1

[1] = read-out: Inhibition at 1 µM (%)
[2] = 1 h, 1 μM WEL028, 1 h preincubation

`C#CCOc1ccc(Nc2ncc(Cl)c(Nc3ccccc3NC(=O)C=C)n2)c(OC)c1` [Compound 6] was tested, and the Morphology (FES^S700C HL-60 cells; 100 nM WEL028) was “macrophage morphology”, the Morphology (FES^S700C HL-60 cells; 1 µM WEL028) was “morphology is similar to non-differentiated cells” and the inhibition at 1 µM (CDC42 BPG (MRCKG); 1 h) was -1%. It also gave an inhibition at 1 µM (CDC42 BPG (MRCKG); [1]) of -1%, an inhibition at 1 µM (CDK17/cyclin Y; [2]) of 4% and an inhibition at 1 µM (CDK17/cyclin Y; read-out: Inhibition at 1 µM (%), CDK17/cyclin Y, 1 µM, ZLYTE, ATP Km app) of 5%. The inhibition at 1 µM (EPHA7) was 4%, the inhibition at 1 µM (ERBB2 (HER2); [2]) was 2% and the “Inhibition at 1 µM (%)” value (ERBB2 (HER2)) was -2%. The “Inhibition at 1 µM (%)” value (ERBB2 (HER2); listed as WEL028, 1 µM) was 6%, the inhibition at 1 µM (ERN1; [2]) was 8% and the “Inhibition at 1 µM (%)” value (ERN1) was 13%. The “Inhibition at 1 µM (%)” value (ERN1; listed as WEL028, 1 µM) was 4%, the “Inhibition (%)” value (MET (cMet); 1 μM WEL028, 1 h preincubation) was -4% and the “Inhibition at 1 µM (%)” value (MET (cMet); MET (cMet), 1 µM, ZLYTE, ATP Km app, listed as WEL028, 1 µM) was 0% and -9%. The inhibition at 1 µM (PIK3C2G (PI3K-C2 gamma); [2]) was -3%, the “Inhibition at 1 µM (%)” value (PIK3C2G (PI3K-C2 gamma); PIK3C2G (PI3K-C2 gamma), 1 µM, Adapta, ATP 10, listed as WEL028, 1 µM) was -1% and -6% and the “Inhibition at 1 µM (%)” value (SPHK2; 1 µM, Adapta, ATP 10, listed as WEL028, 1 µM) was 5% and 1%. The inhibition at 1 µM (SPHK2; [2]) was 3%, the “Inhibition at 1 µM (%)” value (TEC) was 2% and the “Inhibition at 1 µM (%)” value (TEC; listed as WEL028, 1 µM) was 7%. The inhibition at 1 µM (TEC; [2]) was 5%, the “Inhibition at 1 µM (%)” value (TNK1; 1 µM, ZLYTE, ATP Km app) was 41% and the inhibition at 1 µM (TNK1; 1 h) was 41%. For the same compound, the inhibition at 1 µM (TNK1; [1]) was 41%, the “Inhibition (%)” value (TYK2; 1 μM WEL028, 1 h preincubation) was -1% and the “Inhibition at 1 µM (%)” value (TYK2; 1 µM, ZLYTE, ATP Km app, listed as WEL028, 1 µM) was -6% and 4%.
